# In article PMC5762315, “Inhibition of polo-like kinase 4 (PLK4): a new therapeutic option for rhabdoid tumors and pediatric medulloblastoma” (Oncotarget, 2017):
# Values joined by “and” are separate entries in the source; they are usually repeats but may differ in a detail not shown here. Equal values may be shown once.
# Experiments:
# [1] = system: BT-12 AT/RT orthotopic xenografts; experiment: Intracranial AT/RT xenograft tumors; format: in vivo, athymic mice
# From the text: Six-week-old female athymic mice (rnu/rnu genotype, BALB/c background) were purchased from Envigo (Harlan) and housed under aseptic conditions, which included filtered air and sterilized food, water, bedding, and cages. The Northwestern University Institutional Animal Care and Use Committee approved all animal protocols. The BT-12 AT/RT cell line, which has high expression of PLK4 was modified to express luciferase and injected intracranially in nude mice as previously described. Each mouse was injected with a cell suspension (10,000 cells/3μL) into the right caudate putamen of the brain. […] Bioluminescence monitoring was performed twice a week throughout the course of the experiment for quantitative measurement of tumor growth and response to therapy. Kaplan-Meier survival analysis was performed to assess survival benefit within the treatment group as compared to controls. Differences between survival curves were calculated using a log-rank test. Brains were resected at 6 hours following completion of the treatment and placed in 4% paraformaldehyde for subsequent histological examination.
# [2] = system: G401, BT-16, DAOY and D283 cell lines; experiment: Flow cytometry cell cycle analysis (polyploidy), other RT and MB lines; format: cell-based, human; conditions: 100nM for 48 hours
# Procedure: Cell cycle evaluation was performed by staining the cells with PI (Thermo Fisher Scientific, USA) according to manufacturer’s instructions. […] Data was analyzed using Modfit LT from Verity Software House. Experiments were performed in triplicates.
# DAOY MB cells = experiment: Confluency assay (IncuCyte ZOOM), DAOY; format: cell-based, human; conditions: increasing concentrations starting at 31.25nM, 48 hours, p-value=0.029
# Procedure: For further evaluation of the effect of the PLK4 inhibitor over tumor cell proliferation, confluency was measured over a 48 hour period. MON, BT-12, G401 and DAOY cells were plated in 96-well plates with a density of 6 x 10^4 per well. […] Confluency was monitored for 48 hours by taking phase contrast images every 2 hours and measured using an IncuCyte ZOOM system (Essen BioScience, USA). Experiments were performed in triplicates.
# various kinases [3] = biological target: various kinases (Homo sapiens, UniProt Q9BTU6); experiment: Adapta Universal Kinase Assay, panel of 486 biochemical kinase assays; set-up: % Inhibition Average: concentration or dose not given beside the values; conditions: PI4K2A (PI4K2 alpha)
# various kinases [4] = biological target: various kinases (Homo sapiens, UniProt Q5S007, R1441C); experiment: as above; set-up: % Inhibition Average: concentration or dose not given beside the values; conditions: LRRK2 R1441C
# various kinases [5] = biological target: various kinases (Homo sapiens, UniProt P42338); experiment: as above; set-up: % Inhibition Average: concentration or dose not given beside the values
# various kinases [6] = biological target: various kinases (Homo sapiens, UniProt Q8NEB9); experiment: as above; set-up: % Inhibition Average: concentration or dose not given beside the values; conditions: PIK3C3 (hVPS34)
# various kinases [7] = biological target: various kinases (Homo sapiens, UniProt Q8TF76); experiment: as above; set-up: % Inhibition Average: concentration or dose not given beside the values; conditions: GSG2 (Haspin)
# various kinases [8] = biological target: various kinases (Homo sapiens, UniProt P50750); experiment: as above; set-up: % Inhibition Average: concentration or dose not given beside the values; conditions: CDK9/cyclin T1
# various kinases [9] = biological target: various kinases (Homo sapiens, UniProt O14986); experiment: as above; set-up: % Inhibition Average: concentration or dose not given beside the values; conditions: kinase PIP5K1B; Adapta
# various kinases [10] = biological target: various kinases (Homo sapiens, UniProt O60285); experiment: as above; set-up: % Inhibition Average: concentration or dose not given beside the values; conditions: NUAK1 (ARK5)
# various kinases [11] = biological target: various kinases (Homo sapiens, UniProt P42336, E545K); experiment: as above; set-up: % Inhibition Average: concentration or dose not given beside the values; conditions: PIK3CA E545K/PIK3R1 (p110 alpha E545K/p85 alpha)
# various kinases [12] = biological target: various kinases (Homo sapiens, UniProt O00329); experiment: as above; set-up: % Inhibition Average: concentration or dose not given beside the values; conditions: PIK3CD/PIK3R1 (p110 delta/p85 alpha)
# various kinases [13] = biological target: various kinases (Homo sapiens, UniProt O00750); experiment: as above; set-up: % Inhibition Average: concentration or dose not given beside the values; conditions: PIK3C2B (PI3K-C2 beta)
# various kinases [14] = biological target: various kinases (Homo sapiens, UniProt Q5S007, I2020T); experiment: as above; set-up: % Inhibition Average: concentration or dose not given beside the values; conditions: LRRK2 I2020T
# various kinases [15] = biological target: various kinases (Homo sapiens, UniProt P48426); experiment: as above; set-up: % Inhibition Average: concentration or dose not given beside the values; conditions: PIP4K2A
# various kinases [16] = biological target: various kinases (Homo sapiens, UniProt P53355); experiment: as above; set-up: % Inhibition Average: concentration or dose not given beside the values; conditions: DAPK1
# various kinases [17] = biological target: various kinases (Homo sapiens, UniProt O75747); experiment: as above; set-up: % Inhibition Average: concentration or dose not given beside the values; conditions: PIK3C2G (PI3K-C2 gamma)
# various kinases [18] = biological target: various kinases (Homo sapiens, UniProt O00443); experiment: as above; set-up: % Inhibition Average: concentration or dose not given beside the values; conditions: PIK3C2A (PI3K-C2 alpha)
# various kinases [19] = biological target: various kinases (Homo sapiens, UniProt P50613); experiment: as above; set-up: % Inhibition Average: concentration or dose not given beside the values; conditions: CDK7/cyclin H/MNAT1
# various kinases [20] = biological target: various kinases (Homo sapiens, UniProt Q5S007, G2019S); experiment: as above; set-up: % Inhibition Average: concentration or dose not given beside the values
# various kinases [21] = biological target: various kinases (Homo sapiens, UniProt O15111); experiment: as above; set-up: % Inhibition Average: concentration or dose not given beside the values; conditions: CHUK (IKK alpha)
# AURKC = AURKC (Homo sapiens, UniProt Q9UQB9); experiment: Kinase activity screening (SelectScreen), AURKC; format: biochemical; conditions: read-out: kinase activity inhibited
# [22] = H&E of xenografts, treated vs control, p-value<0.0001
# Chain of various kinases (Homo sapiens, UniProt O60285) (O60285 whole entry): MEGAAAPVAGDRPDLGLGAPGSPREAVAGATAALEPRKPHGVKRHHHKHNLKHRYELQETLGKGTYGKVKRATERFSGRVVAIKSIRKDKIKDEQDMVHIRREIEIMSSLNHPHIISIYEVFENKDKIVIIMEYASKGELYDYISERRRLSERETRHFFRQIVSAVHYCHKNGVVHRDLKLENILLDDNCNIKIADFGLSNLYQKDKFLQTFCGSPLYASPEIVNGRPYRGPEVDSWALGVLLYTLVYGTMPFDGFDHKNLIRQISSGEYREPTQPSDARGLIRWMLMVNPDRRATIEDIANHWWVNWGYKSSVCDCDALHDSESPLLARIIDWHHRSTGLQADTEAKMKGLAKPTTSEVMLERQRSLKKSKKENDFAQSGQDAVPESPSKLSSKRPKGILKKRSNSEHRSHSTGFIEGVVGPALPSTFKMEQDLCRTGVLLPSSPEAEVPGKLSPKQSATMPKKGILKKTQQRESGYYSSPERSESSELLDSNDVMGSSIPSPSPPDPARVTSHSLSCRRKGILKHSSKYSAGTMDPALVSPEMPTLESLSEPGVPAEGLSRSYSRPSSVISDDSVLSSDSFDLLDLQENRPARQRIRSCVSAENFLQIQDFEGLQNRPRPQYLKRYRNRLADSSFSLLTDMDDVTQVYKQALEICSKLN
# Chain of various kinases (Homo sapiens, UniProt P42338) (P42338 whole entry): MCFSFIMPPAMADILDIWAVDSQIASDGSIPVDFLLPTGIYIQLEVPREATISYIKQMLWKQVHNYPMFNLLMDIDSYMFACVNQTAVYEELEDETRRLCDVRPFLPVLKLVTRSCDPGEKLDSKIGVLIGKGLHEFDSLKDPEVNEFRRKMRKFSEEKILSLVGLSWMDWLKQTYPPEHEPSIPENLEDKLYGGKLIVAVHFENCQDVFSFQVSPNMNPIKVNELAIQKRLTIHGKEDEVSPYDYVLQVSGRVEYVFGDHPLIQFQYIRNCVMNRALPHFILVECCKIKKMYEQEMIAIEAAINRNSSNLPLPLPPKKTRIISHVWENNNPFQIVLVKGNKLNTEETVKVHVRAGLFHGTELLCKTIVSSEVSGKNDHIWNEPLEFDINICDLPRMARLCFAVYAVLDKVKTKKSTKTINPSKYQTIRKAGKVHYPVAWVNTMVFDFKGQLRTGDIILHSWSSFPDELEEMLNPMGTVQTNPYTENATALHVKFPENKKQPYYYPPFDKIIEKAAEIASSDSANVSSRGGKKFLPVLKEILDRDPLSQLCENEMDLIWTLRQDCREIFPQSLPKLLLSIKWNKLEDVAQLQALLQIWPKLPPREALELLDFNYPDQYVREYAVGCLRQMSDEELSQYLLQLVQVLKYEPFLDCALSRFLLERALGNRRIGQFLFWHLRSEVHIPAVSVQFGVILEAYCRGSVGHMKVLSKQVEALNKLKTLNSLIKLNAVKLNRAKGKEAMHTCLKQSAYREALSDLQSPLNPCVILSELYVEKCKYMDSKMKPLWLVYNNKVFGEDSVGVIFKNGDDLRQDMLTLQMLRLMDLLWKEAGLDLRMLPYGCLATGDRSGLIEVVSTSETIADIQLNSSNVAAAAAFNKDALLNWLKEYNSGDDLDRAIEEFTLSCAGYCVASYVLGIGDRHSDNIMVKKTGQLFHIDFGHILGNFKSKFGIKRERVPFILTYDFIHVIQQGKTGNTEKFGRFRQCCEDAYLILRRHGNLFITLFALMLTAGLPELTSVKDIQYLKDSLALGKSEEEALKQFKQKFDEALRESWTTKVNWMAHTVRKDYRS
# Chain of various kinases (Homo sapiens, UniProt Q5S007, G2019S) (Q5S007 whole entry G2019S): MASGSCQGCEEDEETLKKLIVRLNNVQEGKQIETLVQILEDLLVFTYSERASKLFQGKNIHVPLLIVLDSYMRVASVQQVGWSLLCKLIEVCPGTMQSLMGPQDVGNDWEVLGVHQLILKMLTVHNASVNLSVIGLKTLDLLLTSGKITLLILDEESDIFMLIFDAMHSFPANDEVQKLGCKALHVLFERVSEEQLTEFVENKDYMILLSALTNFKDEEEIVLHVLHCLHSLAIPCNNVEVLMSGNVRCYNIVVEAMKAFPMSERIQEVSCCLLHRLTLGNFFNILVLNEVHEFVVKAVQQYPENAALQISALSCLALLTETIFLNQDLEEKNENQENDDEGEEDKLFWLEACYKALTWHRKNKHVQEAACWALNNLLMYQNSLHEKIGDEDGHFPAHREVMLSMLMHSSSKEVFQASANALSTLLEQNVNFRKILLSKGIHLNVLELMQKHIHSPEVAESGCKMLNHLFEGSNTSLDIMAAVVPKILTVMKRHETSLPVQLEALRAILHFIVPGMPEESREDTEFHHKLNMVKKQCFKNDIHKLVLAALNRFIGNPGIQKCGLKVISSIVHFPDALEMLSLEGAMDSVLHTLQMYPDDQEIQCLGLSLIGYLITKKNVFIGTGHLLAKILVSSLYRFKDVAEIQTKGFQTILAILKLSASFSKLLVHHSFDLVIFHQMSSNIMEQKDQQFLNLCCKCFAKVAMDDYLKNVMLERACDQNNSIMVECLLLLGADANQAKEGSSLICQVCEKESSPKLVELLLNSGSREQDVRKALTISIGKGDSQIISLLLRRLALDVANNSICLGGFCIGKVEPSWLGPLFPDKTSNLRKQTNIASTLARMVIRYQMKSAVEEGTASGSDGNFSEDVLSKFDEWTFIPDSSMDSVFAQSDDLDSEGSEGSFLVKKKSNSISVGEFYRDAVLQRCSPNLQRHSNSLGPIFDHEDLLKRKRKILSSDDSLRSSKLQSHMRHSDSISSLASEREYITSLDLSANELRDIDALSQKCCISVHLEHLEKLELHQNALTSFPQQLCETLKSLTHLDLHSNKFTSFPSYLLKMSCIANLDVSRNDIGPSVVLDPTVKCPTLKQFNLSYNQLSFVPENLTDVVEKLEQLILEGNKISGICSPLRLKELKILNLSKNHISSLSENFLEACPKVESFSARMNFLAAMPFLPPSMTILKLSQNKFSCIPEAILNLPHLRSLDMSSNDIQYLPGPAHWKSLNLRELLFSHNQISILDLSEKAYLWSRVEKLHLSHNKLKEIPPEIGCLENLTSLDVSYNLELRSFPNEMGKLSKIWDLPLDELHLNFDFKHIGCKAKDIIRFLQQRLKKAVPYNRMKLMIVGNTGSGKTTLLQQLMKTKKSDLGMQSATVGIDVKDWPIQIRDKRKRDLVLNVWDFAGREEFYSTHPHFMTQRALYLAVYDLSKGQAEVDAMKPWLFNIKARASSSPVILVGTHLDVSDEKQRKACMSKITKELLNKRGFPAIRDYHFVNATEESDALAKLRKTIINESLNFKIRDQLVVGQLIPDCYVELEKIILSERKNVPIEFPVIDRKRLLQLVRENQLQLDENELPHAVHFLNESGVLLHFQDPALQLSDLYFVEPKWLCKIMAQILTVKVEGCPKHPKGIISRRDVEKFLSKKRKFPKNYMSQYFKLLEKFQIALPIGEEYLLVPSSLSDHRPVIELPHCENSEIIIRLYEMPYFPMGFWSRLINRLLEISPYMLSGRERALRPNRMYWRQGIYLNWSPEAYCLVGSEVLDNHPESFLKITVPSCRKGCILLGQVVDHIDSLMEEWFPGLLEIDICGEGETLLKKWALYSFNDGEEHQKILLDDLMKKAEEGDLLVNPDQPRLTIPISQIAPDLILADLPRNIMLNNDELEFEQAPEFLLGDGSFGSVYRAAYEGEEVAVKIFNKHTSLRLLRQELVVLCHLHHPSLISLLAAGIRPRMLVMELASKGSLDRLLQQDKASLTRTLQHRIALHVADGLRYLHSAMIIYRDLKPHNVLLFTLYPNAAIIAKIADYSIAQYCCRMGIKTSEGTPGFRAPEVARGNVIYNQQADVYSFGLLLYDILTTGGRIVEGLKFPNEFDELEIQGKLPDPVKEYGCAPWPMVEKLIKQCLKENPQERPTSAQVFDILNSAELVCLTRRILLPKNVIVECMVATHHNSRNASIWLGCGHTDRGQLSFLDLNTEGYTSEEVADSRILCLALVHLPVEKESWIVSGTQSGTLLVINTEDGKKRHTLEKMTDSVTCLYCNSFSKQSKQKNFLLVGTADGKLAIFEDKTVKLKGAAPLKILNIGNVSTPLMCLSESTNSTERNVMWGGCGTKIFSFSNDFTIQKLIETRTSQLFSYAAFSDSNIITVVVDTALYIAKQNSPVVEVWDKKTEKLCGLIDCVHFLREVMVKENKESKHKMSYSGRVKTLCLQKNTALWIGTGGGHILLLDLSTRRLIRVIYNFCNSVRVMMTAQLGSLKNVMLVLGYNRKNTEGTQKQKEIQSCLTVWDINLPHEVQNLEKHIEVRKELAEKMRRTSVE
# Chain of various kinases (Homo sapiens, UniProt O14986) (O14986 whole entry): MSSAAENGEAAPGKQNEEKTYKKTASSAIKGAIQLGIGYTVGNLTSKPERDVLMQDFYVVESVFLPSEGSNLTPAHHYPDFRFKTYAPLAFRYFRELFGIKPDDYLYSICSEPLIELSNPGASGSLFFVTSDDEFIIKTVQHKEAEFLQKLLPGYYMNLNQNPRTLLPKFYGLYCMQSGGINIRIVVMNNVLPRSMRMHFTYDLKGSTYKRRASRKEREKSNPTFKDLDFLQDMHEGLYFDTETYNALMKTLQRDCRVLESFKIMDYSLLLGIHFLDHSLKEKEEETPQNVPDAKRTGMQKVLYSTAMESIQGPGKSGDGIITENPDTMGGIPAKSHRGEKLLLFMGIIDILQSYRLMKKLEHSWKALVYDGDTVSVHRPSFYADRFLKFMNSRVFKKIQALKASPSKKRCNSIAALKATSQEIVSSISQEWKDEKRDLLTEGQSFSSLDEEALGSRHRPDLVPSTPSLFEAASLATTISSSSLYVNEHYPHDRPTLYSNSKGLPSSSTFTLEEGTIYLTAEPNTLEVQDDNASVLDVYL
# Chain of various kinases (Homo sapiens, UniProt Q5S007, R1441C) (Q5S007 whole entry R1441C): as the sequence (Q5S007 whole entry G2019S) above, with R1441C, S2019G counted along it
# Chain of various kinases (Homo sapiens, UniProt Q5S007, I2020T) (Q5S007 whole entry I2020T): as the sequence (Q5S007 whole entry G2019S) above, with S2019G, I2020T counted along it
structure (smiles),measurement,setting,value
COc1ccc2c(c1)[C@]1(C[C@H]1c1ccc3c(/C=C/c4ccc(CN5C[C@@H](C)O[C@@H](C)C5)cc4)n[nH]c3c1)C(=O)N2 [CFI-400945],growth of intracranial AT/RT tumors (luminescence),"[1]; 7.5 mg/kg/day oral for 21 days, p=0.0146",significantly reduced
same,survival of treated animals,"[1]; 7.5 mg/kg/day oral for 21 days, p=0.0477, log-rank test",extended
same,nuclear area FC in tumor cells,[1]; [22],21.67
same,nuclear diameter FC in tumor cells,[1]; [22],2.69
same,polyploidy (cell cycle analysis),[2],extreme polyploidy
same,"FC, delay in reaching confluency",DAOY MB cells,1.70
same,% Inhibition,various kinases [3],-1% and 2%
same,% Inhibition,various kinases [4],35% and 42%
same,% Inhibition,various kinases [5]; PIK3CB/PIK3R1 (p110 beta/p85 alpha),4% and 3%
same,% Inhibition,various kinases [5]; PIK3CB/PIK3R2 (p110 beta/p85 beta),12% and 6%
same,% Inhibition,various kinases [6],8% and 15%
same,% Inhibition,various kinases [7],-7% and 3%
same,% Inhibition,various kinases [8],17% and 14%
same,% Inhibition Average,various kinases [9],-1%
same,% Inhibition Duplicate #1,various kinases [9],2%
same,% Inhibition Duplicate #2,various kinases [9],-3%
same,% Inhibition,various kinases [10],66% and 65%
same,IC50,various kinases [10],272 nM
same,% Inhibition,various kinases [11],-5% and -9%
same,% Inhibition,various kinases [12],-2% and -8%
same,% Inhibition,various kinases [13],2% and -1%
same,% Inhibition,various kinases [14],44% and 46%
same,% Inhibition,various kinases [15],5% and 10%
same,% Inhibition,various kinases [16],2% and 0%
same,% Inhibition,various kinases [17],-1% and -6%
same,% Inhibition,various kinases [18],0% and 1%
same,% Inhibition,various kinases [19],-11% and -6%
same,% Inhibition,various kinases [20]; LRRK2 G2019S,54% and 55%
same,% Inhibition,various kinases [20]; LRRK2 G2019S FL,54% and 50%
same,% Inhibition,various kinases [21],-11%
same,inhibition at 0.5 µM,AURKC,84%
